Assays:
human SSTR2 = molecular target: T1, human SSTR2 (Homo sapiens, UniProt P30874); assay: Evaluation of SSTR2 agonist activity using human SSTR2 expressing cells (inhibition of Forskolin-stimulated cAMP production in SSTR2-CHO-K1); format: cell-based; conditions: read-out: EC50 of agonist activity against human SSTR2
T1 construct: Myc; expressed in transfected cells
Description: Evaluation of SSTR2 Agonist Activity Using Human SSTR2 Expressing Cells
CHO-K1 (−) were cultured using Ham's F-12 (including FBS (10%), penicillin (100 U/mL) and streptomycin (0.1 mg/mL)) as medium. The transduced cells were cultured using the medium above with geneticin (1 mg/ml).
The plasmid pIRESneo-Myc/hSSTR2 was transduced into CHO-K1 (−) cell using Lipofectamine 2000 (Invitrogen). After 48 hours, the medium was changed to the medium including 1 mg/mL Geneticin, overexpressing cells were selected and stably overexpressing cells (SSTR2-CHO-K1) were established.
Human SSTR2 agonist activity of test compounds was evaluated by following procedure using inhibition activity against intracellular cyclic AMP (cAMP) production stimulated by Forskolin as an indicator. The SSTR2-CHO-K1 cells suspended in Ham's F-12 medium (including fetal bovine serum (10%), penicillin (100 U/mL), streptomycin (0.1 mg/mL)) including 0.25 mg/mL Geneticin was seeded in 96 wells plate (4.0×10^4 cells/0.1 mL/1 well). After 1 day, the medium was removed and the cells were washed with 0.1 mL of wash buffer solution [0.1% bovine serum albumin (BSA), Hank's Balanced Salt Solution (HBSS) including 20 mmol/L 4-(2-hydroxyethyl)-1-piperazine ethanesulfonic acid (HEPES)] twice. To the cells added 0.06 mL/well assay buffer [500 nmol/L 3-isobutyl-1-methylxanthine (IBMX), 0.1% BSA, 20 mmol/L HBSS including HEPES], and incubated for 15 min. under 5% CO2 and 37° C. Next, to the cells added 0.06 mL/well assay buffer including test compounds of the double concentration of final concentration and 0.02 mmol/L Forskolin, and incubated for 30 min. under 5% CO2 and 37° C. After that, to the cells added 0.12 mL/well Assay/Lysis buffer included with cAMP-Screen® kit (Applied Biosystems®), and incubated for 30 min. under 5% CO2 and 37° C. The concentration of c-AMP is determined by ELISA test according to manual included with the kit.

[1] = Evaluation of the cell toxicity using cultured human hepatocyte (ATP, Celltiter-Glo); format: cell-based; conditions: cultured adherent human hepatocytes (thawed from frozen); cultured human hepatocytes, 24 hours, ATP concentration; read-out: IC50 (50% inhibitory compound concentration of the emission of light, cell toxicity)
Description: (§1) Evaluation of the cell toxicity using cultured human hepatocyte.
(§2) Frozen adherent human hepatocyte was thawed and suspended in hepatocyte cultured medium (HCM) purchased from Lonza, and then seeded in 96 wells plate coated by collagen. The hepatocytes were cultured overnight in the incubator (5% carbon dioxide, 95% air, 37° C.) and its medium was replaced with medium including test compounds ([…]) and cultured for 24 hours more. The cell toxicity was evaluated by measurement of ATP concentration in the cells. Specifically, using Promega Celltiter-Glo luminescent assay kit made by Promega KK, the cells were dissolved in an accompanying assay buffer and the ATP concentration released from the cells was determined by an emission of light of the luciferin-luciferase enzyme activity. The emission of light was measured by Molecular device's SpectraMax plate reader. A degree of toxicity was shown 50% inhibitory compound concentration of the emission of light (IC50).

[2] = system: cultured human hepatocyte; assay: as above; format: cell-based; conditions: IC50 of Biological Example 4 / EC50 of Biological Example 1
Description: as §1, §2

[3] = system: Growth Hormone (GH) secretion; assay: Evaluation of Growth Hormone (GH) secretory inhibitory activity using rat (GHRH-evoked); format: in vivo
Description: Evaluation of Growth Hormone (GH) secretory inhibitory activity using rat.
Test compounds dissolved in vehicle (distillated water (Otsuka jouryuusui, Otsuka Pharmaceutical Factory, Inc.) or vehicle only was administered to rat (7-week-old, male Crl: CD (SD) IGS rat (CHARLES RIVER LABORATORIES JAPAN, INC.)) orally, and 27 min. later, 50 mg/kg of sodium pentobarbital (Somunopentil® Kyoritsu Seiyaku) was administered by tail vein injection to be anesthetized. Three minutes after administration of sodium pentobarbital, 0.01 mg/kg of growth hormone-releasing hormone (GHRH, Bachem) was administered by tail vein injection to evoke GH secretion. To measure blood concentration of GH, 0.2 mL blood sample from cervical vein was collected 5 minutes after administration of GHRH. The blood samples were treated with centrifugation at 13,000 g at 4° C. for 5 min. to obtain plasma sample. Blood concentration of GH was determined by Rat/Mouse Growth Hormone ELISA (Millipore) according to the procedure manual.
Test compounds dissolved in vehicle (distillated water (Otsuka jouryuusui, Otsuka Pharmaceutical Factory, Inc.) or vehicle only was administered to rat (7-week-old, male Crl: CD (SD) IGS rat (CHARLES RIVER LABORATORIES JAPAN, INC.)) orally, and 7 hours 57 minutes later, 50 mg/kg of sodium pentobarbital (Somunopentil® Kyoritsu Seiyaku) was administered by tail vein injection to be anesthetized. Three min. after administration of sodium pentobarbital, 0.01 mg/kg of growth hormone-releasing hormone (GHRH, Bachem) was given by tail vein injection to evoke GH secretion. Procedure after that was same as [Procedure (A)]

gastric acid secretion = assay: Evaluation of the gastric-acid secretion inhibitory activity using rat (gastric outlet tied off); format: in vivo; conditions: dose of 0.3 mg/kg, subcutaneously
Description: Evaluation of the gastric-acid secretion inhibitory activity using rat.
After closing the laparotomy department, vehicle only (saline (Otsuka seishokuchu, Otsuka Pharmaceutical Factory, Inc.) or test compounds which were dissolved in vehicle were administered subcutaneously immediately, and the rats were recovered from anesthesia. After 2 hours from tying gastric outlet, the rats were treated with abdominal operation under isoflurane anesthesia again, pinched cardiac end of the stomach with forceps and exsanguinated to death. After stomach contents were centrifugalized at 500 g for 15 min. and the supernatant was separated as gastric fluid, the volume of gastric fluid was determined based on weight (mL/100 g BW). Furthermore, acid concentration of gastric fluid (mmol/mL) was determined by back titration using COM-1600ST automatic titrator (Hitachi High-Technologies Corporation (Hiranuma sangyo Co., Ltd.)).

[4] = molecular target: somatostatin receptor subtype 4 (SSTR4) (Homo sapiens, UniProt P31391); conditions: reported in background art; cited from earlier work
Chain of somatostatin receptor subtype 4 (SSTR4) (P31391 whole entry, species assumed): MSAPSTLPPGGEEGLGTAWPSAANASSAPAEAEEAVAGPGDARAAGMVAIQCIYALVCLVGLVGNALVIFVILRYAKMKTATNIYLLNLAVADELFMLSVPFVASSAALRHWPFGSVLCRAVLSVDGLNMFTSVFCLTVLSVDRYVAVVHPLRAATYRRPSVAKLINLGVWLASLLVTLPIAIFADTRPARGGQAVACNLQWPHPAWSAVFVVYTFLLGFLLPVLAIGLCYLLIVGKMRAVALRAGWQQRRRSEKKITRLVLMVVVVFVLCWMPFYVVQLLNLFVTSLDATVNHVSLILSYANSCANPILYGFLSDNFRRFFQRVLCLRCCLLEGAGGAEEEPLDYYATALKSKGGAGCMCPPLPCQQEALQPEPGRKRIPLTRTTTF

[5] = molecular target: somatostatin receptor subtype 2 (SSTR2) (Homo sapiens, UniProt P30874); conditions: reported in background art; cited from earlier work
Chain of somatostatin receptor subtype 2 (SSTR2) (P30874 whole entry, species assumed): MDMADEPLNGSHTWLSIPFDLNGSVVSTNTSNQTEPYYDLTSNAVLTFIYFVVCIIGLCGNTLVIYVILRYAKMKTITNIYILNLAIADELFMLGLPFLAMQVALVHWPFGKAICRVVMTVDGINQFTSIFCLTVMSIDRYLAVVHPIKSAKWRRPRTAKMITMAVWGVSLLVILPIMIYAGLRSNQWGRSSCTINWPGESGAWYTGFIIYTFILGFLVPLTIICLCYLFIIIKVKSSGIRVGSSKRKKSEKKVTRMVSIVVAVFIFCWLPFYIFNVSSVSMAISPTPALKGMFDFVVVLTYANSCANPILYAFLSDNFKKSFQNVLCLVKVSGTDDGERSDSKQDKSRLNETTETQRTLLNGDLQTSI

[6] = molecular target: somatostatin receptor subtype 1 (SSTR1) (Homo sapiens, UniProt P30872); conditions: reported in background art; cited from earlier work
Chain of somatostatin receptor subtype 1 (SSTR1) (P30872 whole entry, species assumed): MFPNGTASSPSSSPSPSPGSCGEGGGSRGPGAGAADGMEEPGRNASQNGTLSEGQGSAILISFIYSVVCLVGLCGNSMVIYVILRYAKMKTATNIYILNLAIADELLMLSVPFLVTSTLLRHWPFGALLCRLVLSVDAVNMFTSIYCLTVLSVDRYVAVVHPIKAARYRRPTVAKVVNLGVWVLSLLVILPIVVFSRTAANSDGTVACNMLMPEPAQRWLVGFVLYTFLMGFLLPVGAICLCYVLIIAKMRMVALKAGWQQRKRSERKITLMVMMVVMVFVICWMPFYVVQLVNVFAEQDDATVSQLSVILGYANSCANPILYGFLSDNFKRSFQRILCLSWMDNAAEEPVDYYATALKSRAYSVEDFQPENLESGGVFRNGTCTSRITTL

[7] = molecular target: somatostatin receptor subtype 3 (SSTR3) (Homo sapiens, UniProt P32745); conditions: reported in background art; cited from earlier work
Chain of somatostatin receptor subtype 3 (SSTR3) (P32745 whole entry, species assumed): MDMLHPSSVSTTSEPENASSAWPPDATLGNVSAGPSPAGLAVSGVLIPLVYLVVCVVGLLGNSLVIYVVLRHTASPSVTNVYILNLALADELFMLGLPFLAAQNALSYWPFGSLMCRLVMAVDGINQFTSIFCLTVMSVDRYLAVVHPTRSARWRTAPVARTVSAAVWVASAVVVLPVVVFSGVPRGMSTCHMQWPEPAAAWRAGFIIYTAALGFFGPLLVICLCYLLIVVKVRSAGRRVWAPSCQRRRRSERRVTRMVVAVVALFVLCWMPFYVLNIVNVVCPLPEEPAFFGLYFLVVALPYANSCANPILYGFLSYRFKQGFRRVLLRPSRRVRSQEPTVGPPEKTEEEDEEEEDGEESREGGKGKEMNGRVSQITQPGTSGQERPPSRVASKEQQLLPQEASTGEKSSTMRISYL

[8] = 1 mg/kg orally, Procedure (B): administered 8 hours before

T1 sequence (P30874 whole entry): as the sequence (P30874 whole entry, species assumed) above

EC50 (human SSTR2) | Compound | IC50 at 24 h [1] | ratio of IC50 (hepatocyte toxicity) divided by SSTR2 agonist activity (EC50) [2] | ratio of GH secretion inhibition [3, 8] | other results
0.034 nM | Cc1cc(F)cc(-c2cncc(/C=C/c3cncc(C#N)c3)c2N2CC[C@H]3NCCO[C@@H]3C2)c1 (racemic) [Example 36(8), 5-[(E)-2-{5-(3-fluoro-5-methylphenyl)-4-[rac-(4aR,8aR)-octahydro-6H-pyrido[3,4-b][1,4]oxazin-6-yl]-3-pyridinyl}vinyl]nicotinonitrile] | 69 µM | 2,030,000 times | 83% | 
0.049 nM | Cc1cc(F)cc(-c2cncc(-c3ccc(C(F)(F)F)cc3)c2N2CCC(N)CC2)c1 [Example 26(24), 1-{3-(3-fluoro-5-methylphenyl)-5-[4-(trifluoromethyl)phenyl]-4-pyridinyl}-4-piperidinamine] | 35 µM | 710,000 times | 91% | 
0.016 nM | Cc1cc(F)cc(-c2cncc(/C=C/c3cccc(C#N)c3)c2N2CCC(N)CC2)c1 [Example 36(5), 3-{(E)-2-[4-(4-amino-1-piperidinyl)-5-(3-fluoro-5-methylphenyl)-3-pyridinyl]vinyl}benzonitrile] | 19 µM | 1,190,000 times | 92% | 

The remaining lines, values behind:

Compound | EC50 (human SSTR2) | IC50 at 24 h [1] | ratio of IC50 (hepatocyte toxicity) divided by SSTR2 agonist activity (EC50) [2] | ratio of GH secretion inhibition [3, 8] | other results
Cc1cc(C)cc(NC(=O)c2cncc(-c3cc(C)cc(C)c3)c2N2CCC(CN)CC2)c1 [Example 2(20), 4-[4-(aminomethyl)-1-piperidinyl]-N,5-bis(3,5-dimethylphenyl)pyridine-3-carboxamide] | 0.006 nM | 40 µM | 6,670,000 times |  | ratio of gastric acid secretion inhibition (gastric acid secretion): 89%; ratio of GH secretion inhibition ([3]; 3 mg/kg orally, Procedure (A): administered 30 min before): 97%
Cc1cc(C)cc(-c2cncc(-c3ccc(C(F)(F)F)cc3)c2N2CCC(N)CC2)c1 [Example 26(15), 1-{3-(3,5-dimethylphenyl)-5-[4-(trifluoromethyl)phenyl]-4-pyridinyl}-4-piperidinamine] |  |  |  |  | ratio of GH secretion inhibition ([3]; 3 mg/kg orally, Procedure (B): administered 8 hours before): 92%
CC(C)[C@@H]1NC(=O)[C@H](CCCCN)NC(=O)[C@@H](Cc2c[nH]c3ccccc23)NC(=O)[C@H](Cc2ccc(O)cc2)NC(=O)[C@@H](NC(=O)[C@H](N)Cc2ccc3ccccc3c2)CSSC[C@@H](C(=O)N[C@H](C(N)=O)[C@@H](C)O)NC1=O [Lanreotide acetate] |  |  |  |  | binding to SSTR4 (in words) [4]: not to bind; binding affinity to SSTR2 (in words) [5]: high affinity; binding to SSTR1 (in words) [6]: not to bind; binding affinity to SSTR3 (in words) [7]: moderate affinity
Cc1cc(C)cc(-c2cnc3cc(Cl)c(-c4cnn(C)c4)cc3c2OCC[C@H]2CCCCN2)c1 [formula (M), reference compound] |  | 13 µM |  |  | 

From patent US10214540B2, “Compound having agonistic activity on somatostatin receptor, and use thereof for medical purposes” (ONO PHARMACEUTICAL CO., LTD., priority 2012, dated 2019)
